Tests used:
[1] = target: T1, calcium independent cytosolic phospholipase A2/B (Cricetulus griseus, UniProt A0A3L7I2I8); assay: Phospholipase hydrolysis assays, format not specified; assay type: biochemical, Chinese hamster
T1 construct: purified from the cytosol of Chinese hamster ovary (CHO) cells; endogenous in cells; host or cells: CHO cells (cytosol; Mono P / heparin / size-exclusion fractions)
T1 sequence (A0A3L7I2I8 1-752 isoform A0A3L7I2I8-2): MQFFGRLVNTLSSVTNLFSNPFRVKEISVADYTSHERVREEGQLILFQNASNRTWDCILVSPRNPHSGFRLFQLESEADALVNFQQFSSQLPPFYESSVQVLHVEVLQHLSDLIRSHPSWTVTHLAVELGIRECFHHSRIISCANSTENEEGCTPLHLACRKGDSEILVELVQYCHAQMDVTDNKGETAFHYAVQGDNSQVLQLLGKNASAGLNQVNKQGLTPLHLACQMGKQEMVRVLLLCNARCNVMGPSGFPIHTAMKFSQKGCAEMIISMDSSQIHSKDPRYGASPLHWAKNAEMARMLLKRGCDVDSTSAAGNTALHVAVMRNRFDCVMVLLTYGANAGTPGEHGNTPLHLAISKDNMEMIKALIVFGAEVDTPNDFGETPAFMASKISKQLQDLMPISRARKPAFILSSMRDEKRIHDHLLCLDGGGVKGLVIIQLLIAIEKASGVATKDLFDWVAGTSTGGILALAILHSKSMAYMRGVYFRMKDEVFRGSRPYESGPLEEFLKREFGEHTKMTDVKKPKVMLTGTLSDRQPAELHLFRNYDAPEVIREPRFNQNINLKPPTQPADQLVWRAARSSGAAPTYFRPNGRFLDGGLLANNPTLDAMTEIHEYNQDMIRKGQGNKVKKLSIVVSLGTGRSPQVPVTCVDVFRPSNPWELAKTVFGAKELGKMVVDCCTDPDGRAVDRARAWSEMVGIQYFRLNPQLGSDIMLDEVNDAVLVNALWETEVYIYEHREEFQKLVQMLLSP
Method: 1. sn-2 Hydrolysis Assays
(§1) A) Liposome: The lipid, e.g. 1-palmitoyl-2-[^14C]arachidonyl-sn-glycero-3-phosphocholine (PAPC), 55 mCi/mmol, was dried under a stream of nitrogen and solubilized in ethanol. The assay buffer contained 100 mM Tris-HCl pH 7, 4 mM EDTA, 4 mM EGTA, 10% glycerol and 25 μM of labelled PAPC, where the volume of ethanol added was no more than 10% of the final assay volume. The reaction was incubated for 30 minutes at 37° C. and quenched by the addition of two volumes of heptane:isopropanol:0.5M sulfuric acid (105:20:1 v/v). Half of the organic was applied to a disposable silica gel column in a vacuum manifold positioned over a scintillation vial, and the free arachidonic was eluted by the addition of ethyl ether (1 ml). The level of radioactivity was measured by liquid scintillation.
B) Mixed Micelle Basic: The lipid was dried down as in (A) and to this was added the assay buffer consisting of 80 mM glycine pH 9, 5 mM CaCl2 or 5 mM EDTA, 10% or 70% glycerol and […] triton X-100. The mixture was then sonicated for 30-60 seconds at 4° C. to form mixed micelles.
C) Mixed Micelle Neutral: As for (B) except 100 mM Tris-HCl pH 7 was used instead of glycine as the buffer.
Sn-1 hydrolysis assays are performed as described above for […], but using phospholipids labelled at the sn-1 substituent, e.g. 1-[^14C]-palmitoyl-2-arachidonyl-sn-glycero-3-phophocholine.

[2] = target: T1, calcium independent cytosolic phospholipase A2/B; assay: Liposome assay (Example 3A); assay type: biochemical, Chinese hamster; details: assay of Example 3A (liposome)
Method: as §1, with “The reaction was incubated for 30 minutes at 37° C. and quenched by the addition of two volumes of heptane:isopropanol:0.5M sulfuric acid (105:20:1 v/v).” left out
Variations on this assay replace EDTA and EGTA with 10 mM CaCl2.

[3] = target: T2, cPLA2 (Homo sapiens, UniProt P47712); details: comparison enzyme; cited from earlier work
T2 sequence (P47712 1-749): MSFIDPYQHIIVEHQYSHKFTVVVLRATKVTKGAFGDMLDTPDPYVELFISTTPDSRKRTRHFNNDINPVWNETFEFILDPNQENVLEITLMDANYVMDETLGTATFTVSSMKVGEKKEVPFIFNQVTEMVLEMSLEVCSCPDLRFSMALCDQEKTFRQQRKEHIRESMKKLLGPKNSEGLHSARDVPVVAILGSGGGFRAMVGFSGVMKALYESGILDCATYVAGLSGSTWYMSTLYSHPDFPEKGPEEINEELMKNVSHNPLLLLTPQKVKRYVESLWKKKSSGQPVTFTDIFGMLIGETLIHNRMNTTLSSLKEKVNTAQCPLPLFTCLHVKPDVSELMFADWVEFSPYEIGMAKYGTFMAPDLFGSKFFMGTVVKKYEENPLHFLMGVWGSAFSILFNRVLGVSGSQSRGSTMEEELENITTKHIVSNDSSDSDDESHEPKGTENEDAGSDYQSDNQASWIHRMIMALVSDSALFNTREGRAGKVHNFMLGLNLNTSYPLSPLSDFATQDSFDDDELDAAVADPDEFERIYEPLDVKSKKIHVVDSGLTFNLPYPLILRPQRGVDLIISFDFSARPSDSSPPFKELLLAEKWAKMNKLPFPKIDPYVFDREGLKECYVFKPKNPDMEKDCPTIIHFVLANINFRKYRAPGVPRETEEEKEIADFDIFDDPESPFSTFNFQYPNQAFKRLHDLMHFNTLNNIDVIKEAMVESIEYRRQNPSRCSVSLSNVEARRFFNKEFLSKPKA

## C[C@H](CCC(=O)NCCC[N+](C)(C)CCCS(=O)(=O)[O-])[C@H]1CC[C@H]2[C@@H]3[C@H](O)C[C@@H]4C[C@H](O)CC[C@]4(C)[C@H]3C[C@H](O)[C@]12C [CHAPS]
[1]
  inactivation of the enzyme by detergents: inactivated

## Nc1ncnc2c1ncn2[C@@H]1O[C@H](COP(=O)(O)OP(=O)(O)OP(=O)(O)O)[C@@H](O)[C@H]1O [adenosine triphosphate]
[2]
  effect on enzyme activity: not stimulated

## [Ca+2] [calcium]
[1]; in all assays
  effect on enzyme activity: suppressed

## CCCCCCCCO[C@@H]1O[C@H](CO)[C@@H](O)[C@H](O)[C@H]1O [octyl glucoside]
[1]
  inactivation of the enzyme by detergents: inactivated

## NC(N)=O [urea]
[1]; high concentration denaturants
  denaturant concentration that inactivates the enzyme: above 3 M

## triton X-100
[2]
  effect on enzyme activity: suppressed

B1: cPLA2: 110 kD calcium dependent cytosolic phospholipase A2 of U.S. Pat. No. 5,322,776 (protein, UniProt P47712 1-749, looked up)
Cytosolic phospholipase A2: MSFIDPYQHIIVEHQYSHKFTVVVLRATKVTKGAFGDMLDTPDPYVELFISTTPDSRKRTRHFNNDINPVWNETFEFILDPNQENVLEITLMDANYVMDETLGTATFTVSSMKVGEKKEVPFIFNQVTEMVLEMSLEVCSCPDLRFSMALCDQEKTFRQQRKEHIRESMKKLLGPKNSEGLHSARDVPVVAILGSGGGFRAMVGFSGVMKALYESGILDCATYVAGLSGSTWYMSTLYSHPDFPEKGPEEINEELMKNVSHNPLLLLTPQKVKRYVESLWKKKSSGQPVTFTDIFGMLIGETLIHNRMNTTLSSLKEKVNTAQCPLPLFTCLHVKPDVSELMFADWVEFSPYEIGMAKYGTFMAPDLFGSKFFMGTVVKKYEENPLHFLMGVWGSAFSILFNRVLGVSGSQSRGSTMEEELENITTKHIVSNDSSDSDDESHEPKGTENEDAGSDYQSDNQASWIHRMIMALVSDSALFNTREGRAGKVHNFMLGLNLNTSYPLSPLSDFATQDSFDDDELDAAVADPDEFERIYEPLDVKSKKIHVVDSGLTFNLPYPLILRPQRGVDLIISFDFSARPSDSSPPFKELLLAEKWAKMNKLPFPKIDPYVFDREGLKECYVFKPKNPDMEKDCPTIIHFVLANINFRKYRAPGVPRETEEEKEIADFDIFDDPESPFSTFNFQYPNQAFKRLHDLMHFNTLNNIDVIKEAMVESIEYRRQNPSRCSVSLSNVEARRFFNKEFLSKPKA
[3]
  pH optimum: greater than 8

B2: calcium independent phospholipase: 86 kD calcium independent cytosolic phospholipase enzyme purified from the cytosol of CHO cells, SEQ ID NO:2 (protein)
chain: MQFFGRLVNTLSSVTNLFSNPFRVKEISVADYTSHERVREEGQLILFQNASNRTWDCILVSPRNPHSGFRLFQLESEADALVNFQQFSSQLPPFYESSVQVLHVEVLQHLSDLIRSHPSWTVTHLAVELGIRECFHHSRIISCANSTENEEGCTPLHLACRKGDSEILVELVQYCHAQMDVTDNKGETAFHYAVQGDNSQVLQLLGKNASAGLNQVNKQGLTPLHLACQMGKQEMVRVLLLCNARCNVMGPSGFPIHTAMKFSQKGCAEMIISMDSSQIHSKDPRYGASPLHWAKNAEMARMLLKRGCDVDSTSAAGNTALHVAVMRNRFDCVMVLLTYGANAGTPGEHGNTPLHLAISKDNMEMIKALIVFGAEVDTPNDFGETPAFMASKISKQLQDLMPISRARKPAFILSSMRDEKRIHDHLLCLDGGGVKGLVIIQLLIAIEKASGVATKDLFDWVAGTSTGGILALAILHSKSMAYMRGVYFRMKDEVFRGSRPYESGPLEEFLKREFGEHTKMTDVKKPKVMLTGTLSDRQPAELHLFRNYDAPEVIREPRFNQNINLKPPTQPADQLVWRAARSSGAAPTYFRPNGRFLDGGLLANNPTLDAMTEIHEYNQDMIRKGQGNKVKKLSIVVSLGTGRSPQVPVTCVDVFRPSNPWELAKTVFGAKELGKMVVDCCTDPDGRAVDRARAWSEMVGIQYFRLNPQLGSDIMLDEVNDAVLVNALWETEVYIYEHREEFQKLVQMLLSP
[1]
  pH optimum: 6
[1]; PAPC with either palmitoyl or arachidonyl labelled with 14C
  initial rate of hydrolysis, sn-2 position higher than sn-1: 2-3 fold
